In patent US20170143674A1, “Use of Glutaryl Histamine for the Treatment of Respiratory Tract Diseases” (LTD "VALENTA-INTELLEKT", priority 2011, published 2017):

Experiments:
[1] = test system: Staphylococcus aureus (mouse-adapted MRSA strain 5); experiment: animal or person; assay type: in vivo, mice
Description: Tested medicament was glutaryl histamine in doses of 15, 30 and 45 mg/kg. Solutions of the tested medicament for oral administration were prepared ex tempore in stream water. Ampicillin (in intravenous administration) was used as a therapeutic preparation since it is the most experimentally studied antibiotic approved in clinical practice many years ago. Levofloxacin was used as a positive control (in oral administration).
Staphylococcus aureus was used as an infectious agent (mouse-adapted MRSA strain 5, collection from GU NIINA im.G.F. Gauze RAMN).
Firstly, there was determined a lethal dose (LD100) of staphylococcus when intravenously administered to this line of mice with a certain weight. Fatal cases among mice were registered every day for ten days. […] After that, there was determined the dose of ampicillin providing a survival rate of 20% of mice infected with staphylococcus MRSA taken in a lethal dose. For this purpose, mice were housed into cages by 10 animals and infected with a lethal dose of staphylococcus. One hour later, each mouse was intravenously administered ampicillin in doses of 30, 60, 90, 120, 150, and 180 mg/kg. A group of mice infected with a lethal dose of staphylococcus without the treatment was considered as a control group. Fatal cases among mice were registered every day for ten days.
The next step of the experiment was to study an effect of combined administration of glutaryl histamine with ampicilline on a model of MRSA-induced staphylococcal sepsis in mice.
In the experiment, the mice were housed in following groups of 10 animals per cage: […]

[2] = test system: acute respiratory distress syndrome (ARDS); experiment: ARDS model, multiple-dose intravenous LPS (LD30); assay type: in vivo, rat; conditions: for Died: total number 24
Description: Since an intravenous administration of lipopolysaccharide (LPS) to animals is one of the most acceptable models for studying the pathogenesis, pathomorphological changes and consequences of acute respiratory distress syndrome, this model was used in this example. Tested medicament glutaryl histamine was administered for 9 days after the first administration of LPS, i.e. glutaryl histamine was administered for 12 days in total (3 days before the induction of ARDS and 9 days during and after the induction). The exception was dexamethasone since, according to the literature data and the information leaflet, long-time administration of steroidal anti-inflammatory agents can cause severe side effects. For this reason, dexamethasone was administered according to the following schedule: 49, 24 and 1 hour before the induction of ARDS in a dose of 5 mg/kg, for 3 days after the first injection of LPS in the same dose; the medicament was withdrawn by a gradual dose reduction for 3 days. Thus, dexamethasone was administered 9 times.
At this step, animals were administered LPS at more lower dose, but for longer time period. They were received 2 mg/kg on days 1 and 2, and 3 and 4 mg/kg on days 3 and 4, respectively. The maximum mortality rate, similarly to the single-dose administration of LD70, was on the first day. On eighth day, mortality reached 33%.
The second step of the experiment comprises the evaluation of both the mortality rate of the animals with calculation of the protective index and narrower indexes used for determination of a specific protection provided by glutaryl histamine in ARDS. As was disclosed above, a lower dose of LPS (LD30) was used at the second stage. In addition, LPS was administered every day for 4 days. This method of administration was aimed at achieving the maximum disorder exactly in the lung for subsequent evaluation of possible protective action of glutaryl histamine.

[3] = group 2: ampicillin 120 mg/ml i.v. one time

With `CC1(C)S[C@@H]2[C@H](NC(=O)[C@H](N)c3ccccc3)C(=O)N2[C@H]1C(=O)O` [ampicillin] the “Survival rate (%)” value ([1]; ampicillin 30 mg/kg + LD100 St.a., day 10) was 0%, the “Survival rate (%)” value ([1]; ampicillin 60 mg/kg + LD100 St.a., day 10) was 0% and the “Survival rate (%)” value ([1]; ampicillin 90 mg/kg + LD100 St.a., day 10) was 10%. The “Survival rate (%)” value ([1]; ampicillin 120 mg/kg + LD100 St.a., day 10) was 20%, the “Survival rate (%)” value ([1]; ampicillin 150 mg/kg + LD100 St.a., day 10) was 20% and the “Survival rate (%)” value ([1]; ampicillin 180 mg/kg + LD100 St.a., day 10) was 20%. For the same molecule, the died/survived animals ([1]; day 1, ampicillin 30 mg/kg + LD100 St.a.) was 0/10, the died/survived animals ([1]; day 1, ampicillin 60 mg/kg + LD100 St.a.) was 0/10 and the died/survived animals ([1]; day 1, ampicillin 90 mg/kg + LD100 St.a.) was 0/10. The died/survived animals ([1]; day 1, ampicillin 120 mg/kg + LD100 St.a.) was 0/10, the died/survived animals ([1]; day 1, ampicillin 150 mg/kg + LD100 St.a.) was 0/10 and the died/survived animals ([1]; day 1, ampicillin 180 mg/kg + LD100 St.a.) was 0/10. The died/survived animals ([1]; day 1, group 2: ampicillin 120 mg/ml i.v. one time) was 0/10, the died/survived animals ([1]; day 2, ampicillin 30 mg/kg + LD100 St.a.) was 1/9 and the died/survived animals ([1]; day 2, ampicillin 60 mg/kg + LD100 St.a.) was 0/10. The died/survived animals ([1]; day 2, ampicillin 90 mg/kg + LD100 St.a.) was 0/10, the died/survived animals ([1]; day 2, ampicillin 120 mg/kg + LD100 St.a.) was 0/10 and the died/survived animals ([1]; day 2, ampicillin 150 mg/kg + LD100 St.a.) was 0/10. For the same molecule, the died/survived animals ([1]; day 2, ampicillin 180 mg/kg + LD100 St.a.) was 0/10, the died/survived animals ([1]; day 2, group 2: ampicillin 120 mg/ml i.v. one time) was 0/10 and the died/survived animals ([1]; day 3, ampicillin 30 mg/kg + LD100 St.a.) was 3/7. The died/survived animals ([1]; day 3, ampicillin 60 mg/kg + LD100 St.a.) was 2/8, the died/survived animals ([1]; day 3, ampicillin 90 mg/kg + LD100 St.a.) was 1/9 and the died/survived animals ([1]; day 3, ampicillin 120 mg/kg + LD100 St.a.) was 1/9. For the same molecule, the died/survived animals ([1]; day 3, ampicillin 150 mg/kg + LD100 St.a.) was 0/10, the died/survived animals ([1]; day 3, ampicillin 180 mg/kg + LD100 St.a.) was 0/10 and the died/survived animals ([1]; day 3, group 2: ampicillin 120 mg/ml i.v. one time) was 1/9. For the same molecule, the died/survived animals ([1]; day 4, ampicillin 30 mg/kg + LD100 St.a.) was 6/4, the died/survived animals ([1]; day 4, ampicillin 60 mg/kg + LD100 St.a.) was 4/6 and the died/survived animals ([1]; day 4, ampicillin 90 mg/kg + LD100 St.a.) was 3/7. For the same molecule, the died/survived animals ([1]; day 4, ampicillin 120 mg/kg + LD100 St.a.) was 4/6, the died/survived animals ([1]; day 4, ampicillin 150 mg/kg + LD100 St.a.) was 3/7 and the died/survived animals ([1]; day 4, ampicillin 180 mg/kg + LD100 St.a.) was 2/8. For the same molecule, the died/survived animals ([1]; day 4, group 2: ampicillin 120 mg/ml i.v. one time) was 2/8, the died/survived animals ([1]; day 5, ampicillin 30 mg/kg + LD100 St.a.) was 8/2 and the died/survived animals ([1]; day 5, ampicillin 60 mg/kg + LD100 St.a.) was 6/4. The died/survived animals ([1]; day 5, ampicillin 90 mg/kg + LD100 St.a.) was 5/5, the died/survived animals ([1]; day 5, ampicillin 120 mg/kg + LD100 St.a.) was 6/4 and the died/survived animals ([1]; day 5, ampicillin 150 mg/kg + LD100 St.a.) was 5/5. For the same molecule, the died/survived animals ([1]; day 5, ampicillin 180 mg/kg + LD100 St.a.) was 4/6, the died/survived animals ([1]; day 5, group 2: ampicillin 120 mg/ml i.v. one time) was 3/7 and the died/survived animals ([1]; day 6, ampicillin 30 mg/kg + LD100 St.a.) was 9/1. For the same molecule, the died/survived animals ([1]; day 6, ampicillin 60 mg/kg + LD100 St.a.) was 8/2, the died/survived animals ([1]; day 6, ampicillin 90 mg/kg + LD100 St.a.) was 7/3 and the died/survived animals ([1]; day 6, ampicillin 120 mg/kg + LD100 St.a.) was 7/3. The died/survived animals ([1]; day 6, ampicillin 150 mg/kg + LD100 St.a.) was 7/3, the died/survived animals ([1]; day 6, ampicillin 180 mg/kg + LD100 St.a.) was 6/4 and the died/survived animals ([1]; day 6, group 2: ampicillin 120 mg/ml i.v. one time) was 5/5. The died/survived animals ([1]; day 7, ampicillin 30 mg/kg + LD100 St.a.) was 10/0, the died/survived animals ([1]; day 7, ampicillin 60 mg/kg + LD100 St.a.) was 9/1 and the died/survived animals ([1]; day 7, ampicillin 90 mg/kg + LD100 St.a.) was 8/2. The died/survived animals ([1]; day 7, ampicillin 120 mg/kg + LD100 St.a.) was 8/2, the died/survived animals ([1]; day 7, ampicillin 150 mg/kg + LD100 St.a.) was 7/3 and the died/survived animals ([1]; day 7, ampicillin 180 mg/kg + LD100 St.a.) was 7/3. The died/survived animals ([1]; day 7, group 2: ampicillin 120 mg/ml i.v. one time) was 6/4, the died/survived animals ([1]; day 8, ampicillin 30 mg/kg + LD100 St.a.) was 10/0 and the died/survived animals ([1]; day 8, ampicillin 60 mg/kg + LD100 St.a.) was 10/0. The died/survived animals ([1]; day 8, ampicillin 90 mg/kg + LD100 St.a.) was 9/1, the died/survived animals ([1]; day 8, ampicillin 120 mg/kg + LD100 St.a.) was 8/2 and the died/survived animals ([1]; day 8, ampicillin 150 mg/kg + LD100 St.a.) was 8/2. The died/survived animals ([1]; day 8, ampicillin 180 mg/kg + LD100 St.a.) was 7/3, the died/survived animals ([1]; day 8, group 2: ampicillin 120 mg/ml i.v. one time) was 7/3 and the died/survived animals ([1]; day 9, ampicillin 30 mg/kg + LD100 St.a.) was 10/0. The died/survived animals ([1]; day 9, ampicillin 60 mg/kg + LD100 St.a.) was 10/0, the died/survived animals ([1]; day 9, ampicillin 90 mg/kg + LD100 St.a.) was 9/1 and the died/survived animals ([1]; day 9, ampicillin 120 mg/kg + LD100 St.a.) was 8/2. For the same molecule, the died/survived animals ([1]; day 9, ampicillin 150 mg/kg + LD100 St.a.) was 8/2, the died/survived animals ([1]; day 9, ampicillin 180 mg/kg + LD100 St.a.) was 8/2 and the died/survived animals ([1]; day 9, group 2: ampicillin 120 mg/ml i.v. one time) was 8/2. The died/survived animals ([1]; day 10, ampicillin 30 mg/kg + LD100 St.a.) was 10/0, the died/survived animals ([1]; day 10, ampicillin 60 mg/kg + LD100 St.a.) was 10/0 and the died/survived animals ([1]; day 10, ampicillin 90 mg/kg + LD100 St.a.) was 9/1. The died/survived animals ([1]; day 10, ampicillin 120 mg/kg + LD100 St.a.) was 8/2, the died/survived animals ([1]; day 10, ampicillin 150 mg/kg + LD100 St.a.) was 8/2 and the died/survived animals ([1]; day 10, ampicillin 180 mg/kg + LD100 St.a.) was 8/2. For the same molecule, the died/survived animals ([1]; day 10, group 2: ampicillin 120 mg/ml i.v. one time) was 8/2, the “Mortality rate (%)” value [1, 3] was 80% and the “Survival rate (%)” value [1, 3] was 20%.

With `O=C(O)CCCC(=O)NCCc1c[nH]cn1` [glutaryl histamine] the “IP (%) (protective index)” value ([2]; Glutaryl histamine 0.5 mg/kg) was 62.5%, the “M (%) (mortality rate)” value ([2]; Glutaryl histamine 0.5 mg/kg) was 12.5% and the “S (%) (survival rate)” value ([2]; Glutaryl histamine 0.5 mg/kg) was 87.5%. The Died ([2]; Glutaryl histamine 0.5 mg/kg) was 3, the “IP (%) (protective index)” value ([2]; Glutaryl histamine 27 mg/kg) was 75% and the “M (%) (mortality rate)” value ([2]; Glutaryl histamine 27 mg/kg) was 8.3%. The “S (%) (survival rate)” value ([2]; Glutaryl histamine 27 mg/kg) was 91.7%, the “IP (%) (protective index)” value ([2]; Glutaryl histamine 27 mg/kg, listed as Glutaryl histamine) was 75.0% and the Died ([2]; Glutaryl histamine 27 mg/kg) was 2.
